Measurements: patent US20230144845A1 (The Regents of the University of California, priority 2016, published 2023)
Entries after “also recorded” stand apart in the source; their conditions may differ.

Assays:
Type in all cases: in vivo
[1] = tested on: 6-week old C57/B6 mice; assay: Topical treatment of shaved dorsal skin of young mice: pigmentation and hair growth; settings: 16 mM in Transdermal Gel, topical every other day, vs control
Procedure: Mice were topically (unless indicated otherwise) treated every other day with the indicated amount and photos were taken every week. Mice were monitored for the appearance of skin pigmentation, signaling the initiation of anagen. No hair growth (and no pigmentation) was assigned the arbitrary value of 0. Skin darkening was given a value from 0 to 100%, with the higher number indicating darker skin and visible hair growth.
Compounds were dissolved in Transdermal Gel at 16 mM and applied on mice dorsal skin every other day. To show the pigmentation progression, the appearance of skin pigmentation, signaling the initiation of anagen, was assigned an arbitrary value based on skin darkening. No hair growth (and no pigmentation) was assigned a value of 0 and darker skin/visible hair growth was assigned with higher numbers. Photos were taken weekly to document the pigmentation/hair changes.
Dorsal hair was shaved by trimmer at Week 7 and α-KB acid was dissolved in Transdermal Gel at 16 mM and applied on mice dorsal skin every other day.

[2] = tested on: C. elegans; assay: Lifespan of adult worms (C. elegans); settings: P<0.0001 (log-rank test) vs vehicle
[3] = tested on: 101-week old C57BL/6J mice; assay: Oral α-KB in drinking water in aged mice: survival, aging traits, hair
Procedure: (§1) Additionally, α-KG was administrated in drinking water to 6-week old C57/B6 mice for 10 weeks. α-KG was dissolved at 16 mM and water was changed every other day to ensure the integrity of the compound. Oral administration of α-KB was tested in 101-week old C57/B6 mice and lasted for 30 weeks. The concentration of α-KB was 8 mM and water was changed weekly. Pigmentation/hair changes were also monitored by assigning arbitrary values and photos.
Based on the lifespan extending effects of α-KB in C. elegans (FIG. 2), the anti-aging properties in mice were examined. Aged 101-week old C57BL/6J mice were treated with 8 mM α-KB acid dissolved in drinking water for up to 30 weeks.

[4] = tested on: 6-week old C57/B6 mice; assay: Oral α-KG in drinking water in young mice: hair growth; settings: 16 mM in drinking water, 10 weeks, vs negative controls
Procedure: as §1

SMILES	hair growth [1]	skin pigmentation (initiation of anagen) [1]	mean lifespan (days of adulthood) [2]	aging traits (such as cataracts) ([3]; aged mice, 8 mM in drinking water)	age-related hair loss / hair pigmentation and density on dorsal skin ([3]; aged mice, not shaved, 8 mM in drinking water, vs control)	lifespan / survival of old male mice ([3]; old male C57BL/6J mice, 8 mM in drinking water from 101 weeks for up to 30 weeks, P=0.0476 (Fisher's exact test))	hair growth after oral administration [4]
CC[C@H](O)C(=O)O [2-HB, 2-hydroxybutyrate]	had hair growing back faster; also recorded: accelerated pigmentation and hair growth on Day 14	showed pigmentation earlier; also recorded: pigmentation improved; also recorded: accelerated pigmentation	19.8 days of adulthood	–	–	–	–
CCC(=O)C(=O)O [α-KB, alpha-ketobutyrate]	hair growth was accelerated; also recorded: stimulates hair growth by Day 14	started to show pigmentation patches after one week; also recorded: improved pigmentation	22.4 days of adulthood	prevented aging traits in aged mice	exhibited black and thick hair; also recorded: delays or reduces age-related hair loss	significantly increased survival to beyond 131 weeks of age in male animals; also recorded: increases the lifespan of old male C57BL/6J mice	–
O=C(O)CCC(=O)C(=O)O [α-KG, alpha-ketoglutarate]	–	–	26.1 days of adulthood	–	–	–	confirmed its effects for hair growth; also recorded: significantly induces hair growth
